According to the supplement of paper PMC10307832:

What was measured:
Experiment in all cases: relative viability (nuclei count vs DMSO), 5 days (fraction); higher = more cells survive
[1] = compound: Cc1ccc2nc(NCCN)c3ncc(C)n3c2c1 + COc1cc2c(Oc3ccc(NC(=O)C4(C(=O)Nc5ccc(F)cc5)CC4)cc3F)ccnc2cc1OCCCN1CCOCC1 [Foretinib] (partner 0.25 µM)
Procedure, shortened: (§1)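 Relative viability equals treated-well nuclei counts divided by vehicle-well nuclei counts. Counts came from 4× images of lung cancer cell lines grown in 1536-well plates for 5 days after pin-tool dosing on the day after seeding. Dosing used one drug alone or a fixed anchor-drug dose plus five library-drug doses (not always all listed) in √10 steps, and values are medians of duplicate plates.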

Salubrinal + OSI-027 = compound: O=C(/C=C/c1ccccc1)NC(NC(=S)Nc1cccc2cccnc12)C(Cl)(Cl)Cl [Salubrinal] + COc1cccc2cc(-c3nc([C@H]4CC[C@H](C(=O)O)CC4)n4ncnc(N)c34)[nH]c12 [OSI-027] (partner 0.5 µM)
Procedure, shortened: as §1

Salubrinal + AZD7762 = compound: O=C(/C=C/c1ccccc1)NC(NC(=S)Nc1cccc2cccnc12)C(Cl)(Cl)Cl [Salubrinal] + NC(=O)Nc1cc(-c2cccc(F)c2)sc1C(=O)N[C@H]1CCCNC1 [AZD7762] (partner 0.2 µM)
Procedure, shortened: as §1

[2] = compound: Cc1ccc2nc(NCCN)c3ncc(C)n3c2c1 + CS(=O)(=O)CCNCc1ccc(-c2ccc3ncnc(Nc4ccc(OCc5cccc(F)c5)c(Cl)c4)c3c2)o1 [Lapatinib] (partner 2 µM)
Procedure, shortened: as §1

| Cell Line | relative viability ([1]; first compound 0.04 µM) | relative viability ([1]; first compound 0.1265 µM) | relative viability ([1]; first compound 0.4 µM) | relative viability ([1]; first compound 1.265 µM) | relative viability ([1]; first compound 4 µM) | relative viability (Salubrinal + OSI-027; first compound 0.08 µM) | relative viability (Salubrinal + OSI-027; first compound 0.253 µM) | relative viability (Salubrinal + OSI-027; first compound 0.8 µM) | relative viability (Salubrinal + OSI-027; first compound 2.53 µM) | relative viability (Salubrinal + OSI-027; first compound 8 µM) | relative viability (Salubrinal + AZD7762; first compound 0.08 µM) | relative viability (Salubrinal + AZD7762; first compound 0.253 µM) | relative viability (Salubrinal + AZD7762; first compound 0.8 µM) | relative viability (Salubrinal + AZD7762; first compound 2.53 µM) | relative viability (Salubrinal + AZD7762; first compound 8 µM) | relative viability ([2]; first compound 0.04 µM) | relative viability ([2]; first compound 0.1265 µM) | relative viability ([2]; first compound 0.4 µM) | relative viability ([2]; first compound 1.265 µM) | relative viability ([2]; first compound 4 µM) |
| --- | --- | --- | --- | --- | --- | --- | --- | --- | --- | --- | --- | --- | --- | --- | --- | --- | --- | --- | --- | --- |
| NCI-H441 | 1.1 | 1.28 | 0.982 | 0.926 | 0.918 | 0.603 | 0.59 | 0.678 | 0.573 | 0.506 | 1.28 | 0.87 | 1.03 | 0.905 | 0.85 | – | – | – | – | – |
| NCI-H520 | 0.878 | 0.949 | 0.647 | 0.892 | 0.661 | 0.334 | 0.22 | 0.265 | 0.307 | 0.337 | – | – | – | – | – | 0.964 | 0.853 | 0.866 | 0.837 | 0.729 |
| NCI-H522 | – | – | – | – | – | 0.74 | 0.661 | 0.734 | 0.791 | 0.571 | 0.99 | 0.808 | 0.957 | 0.808 | 0.908 | – | – | – | – | – |
| NCI-H661 | 1.02 | 0.983 | 1.03 | 1.1 | 0.967 | 0.781 | 0.58 | 0.77 | 0.705 | 0.603 | – | – | – | – | – | 0.587 | 0.407 | 0.43 | – | 0.458 |
| NCI-H1299 | 1.12 | 1.14 | 1.09 | 1.05 | 1 | – | – | – | – | – | – | – | – | – | – | 0.957 | 0.935 | 0.954 | 0.911 | 0.809 |
| NCI-H1563 | 0.954 | 0.882 | 0.872 | 1.06 | 0.991 | 0.784 | 0.751 | 0.74 | 0.741 | 0.695 | – | – | – | – | – | 0.963 | 1 | 0.88 | 1.15 | 0.88 |
| NCI-H1623 | 0.945 | 0.94 | 0.897 | 0.761 | 0.79 | 0.482 | 0.387 | 0.544 | 0.386 | 0.44 | – | – | – | – | – | – | – | – | – | – |
| NCI-H1648 | – | – | – | – | – | 0.23 | 0.268 | 0.257 | 0.269 | 0.266 | 0.733 | 0.62 | 0.705 | 0.654 | 0.575 | – | – | – | – | – |
| NCI-H1650 | 1.22 | 1.15 | 1.22 | 1.13 | 0.943 | 0.929 | 0.525 | 0.718 | 0.583 | 0.607 | – | – | – | – | – | 0.887 | 0.764 | 0.434 | 0.836 | 0.65 |
| NCI-H1703 | 0.307 | 0.316 | 0.322 | 0.368 | 0.327 | – | – | – | – | – | 0.124 | 0.11 | 0.139 | 0.123 | 0.122 | 1.15 | 0.958 | 1.03 | 1.19 | 0.997 |
| NCI-H1792 | – | – | – | – | – | 0.97 | – | 0.626 | 0.75 | 0.684 | 0.514 | – | 0.982 | 0.571 | 0.354 | 0.944 | 0.904 | 0.837 | 0.857 | 0.81 |
| NCI-H2009 | 1.22 | 1.23 | 1.24 | 1.23 | 1.04 | 0.63 | 0.613 | 0.659 | 0.6 | 0.498 | – | – | – | – | – | 1.03 | 0.958 | 0.88 | 0.928 | 0.836 |
| NCI-H2023 | 0.932 | 0.522 | 1.01 | 0.803 | 0.708 | 0.442 | 0.354 | 0.406 | 0.333 | 0.268 | – | – | – | – | – | 0.949 | 0.884 | 0.651 | 1.26 | 0.69 |
| NCI-H2228 | 0.896 | 0.764 | 0.829 | 0.798 | 0.749 | 0.5 | 0.468 | 0.596 | 0.558 | 0.547 | – | – | – | – | – | 1.07 | 1.3 | 0.884 | 1.15 | 1.04 |
| NCI-H2342 | 1.24 | 1.06 | 0.987 | 1.05 | 1.14 | 0.653 | 0.523 | 0.608 | 0.639 | 0.561 | 0.445 | 0.503 | 0.552 | 0.517 | 0.552 | – | – | – | – | – |
| SK-LU-1 | 0.824 | 0.836 | 0.9 | 0.791 | 0.781 | 0.399 | 0.286 | 0.311 | 0.358 | 0.267 | – | – | – | – | – | 1.06 | 0.951 | 0.889 | 0.948 | 0.852 |
| SK-MES-1 | 1.04 | 0.91 | 1.01 | 0.853 | 0.875 | 0.623 | 0.629 | 0.675 | 0.448 | 0.445 | – | – | – | – | – | 0.503 | 0.512 | 0.493 | 0.447 | 0.472 |
| SW 900 | 1.11 | 1.08 | – | 0.684 | 0.772 | 0.545 | – | 0.737 | 0.576 | 0.481 | 0.612 | 0.579 | 0.687 | 0.585 | 0.421 | – | – | – | – | – |
| SW 1573 | 1.02 | 0.966 | 1.09 | 0.945 | 0.859 | 0.763 | 0.622 | 0.589 | 0.565 | 0.493 | – | – | – | – | – | 1.07 | 1.1 | 1.19 | 1.42 | 0.954 |
